Consider 6 compounds from ChEMBL document CHEMBL1130503, “Synthesis and antibacterial activity of some thio trinems” (Bioorg Med Chem Lett, 1997).

In brackets after ≈: the same amount, converted by molar mass.

The subject of data set [1] is Escherichia coli. In words: The compound was tested in vitro for the antibacterial activity against Escherichia coli 1850E strain, activity expressed as MIC. It counts as functional.
In data set [2] the test system is Staphylococcus aureus. In words: The compound was tested in vitro for the antibacterial activity against Staphylococcus aureus 853E beta-lactamase producing strain, activity expressed as MIC. In kind it is functional.
Data set [3] concerns Clostridium perfringens. The data set is described as follows: The compound was tested in vitro for the antibacterial activity against Clostridium perfringens 615E strain, activity expressed as MIC. In kind it is functional.
Data set [4] has as its system Escherichia coli. The data set is described as follows: The compound was tested in vitro for the antibacterial activity against Escherichia coli 1919 beta-lactamase producing strain, activity expressed as MIC. It counts as functional.
Data set [5] concerns renal dehydropeptidase I (DHP-I). The data set is described as follows: Tested for Biological half life in human plasma (stability to human renal dehydropeptidase I,DHP-I). In kind it is ADME, cell-free.
For data set [6], the system named is Staphylococcus aureus. In words: The compound was tested in vitro for the antibacterial activity against Staphylococcus aureus 663E strain, activity expressed as MIC. It counts as functional.
In data set [7] the test system is Bacteroides fragilis. In words: The compound was tested in vitro for the antibacterial activity against Bacteroides fragilis 2017 strain, activity expressed as MIC. In kind it is functional.
In data set [8] the test system is renal dehydropeptidase I (DHP-I). The data set is described as follows: Biological half life in human plasma (stability to human renal dehydropeptidase I,DHP-I). It counts as ADME, cell-free.
The mark [9] stands for this setting: Clostridium perfringens, read-out: MIC.

As usually defined, the MIC is the lowest concentration found to suppress growth. The half-life is how long it takes for the measured level to halve. Regarding `C=CCOC(=O)C1=C2SCCC[C@H]2[C@@H]2[C@@H]([C@@H](C)O)C(=O)N12`, the MIC in data set [1] (Escherichia coli) amounted to 1 µg/mL (≈ 3.23 µM); in data set [2] (Staphylococcus aureus), 1 µg/mL (≈ 3.23 µM); in data set [3] (setting [9]), 500 µg/mL (≈ 1620 µM); in data set [4] (Escherichia coli), 2 µg/mL (≈ 6.46 µM); in data set [6] (Staphylococcus aureus), 1 µg/mL (≈ 3.23 µM). Also, the half-life in data set [5] came to 10 min.

`C[C@@H](O)[C@H]1C(=O)N2C(C(=O)[O-])=C3CCSCC3[C@H]12.[K+]` (stereo in doubt; 15b): the MIC in data set [1] came out at 4 µg/mL; in data set [2] it was 0.5 µg/mL; in data set [3] it was 250 µg/mL; in data set [7], 0.5 µg/mL; in data set [4] it was 1 µg/mL; in data set [6] it was 1 µg/mL. Further, in data set [5], the half-life is < 7 min.

Turning to `C[C@@H](O)[C@H]1C(=O)N2C(C(=O)[O-])=C3CCCS[C@@H]3[C@H]12.[Na+]`, the minimal inhibitory concentration (MIC) in data set [1] (Escherichia coli) worked out at 0.5 µg/mL; in data set [2] (Staphylococcus aureus), 1 µg/mL; in data set [3] (setting [9]), 30 µg/mL; in data set [7] (Bacteroides fragilis), 0.25 µg/mL; in data set [4] (Escherichia coli), 0.5 µg/mL; in data set [6] (Staphylococcus aureus) it was 1 µg/mL.

Regarding `C[C@@H](O)[C@H]1C(=O)N2C(C(=O)[O-])=C3CCSCC3[C@H]12.[K+]` (stereo in doubt; 15a), the minimum inhibitory concentration (MIC) in data set [1] (Escherichia coli) was determined as 4 µg/mL; in data set [2] (Staphylococcus aureus) it was 1 µg/mL; in data set [3] it was 1000 µg/mL; in data set [7], 0.12 µg/mL; in data set [4] (Escherichia coli) it was 2 µg/mL; in data set [6] (Staphylococcus aureus), 1 µg/mL. The same compound gave a half-life in data set [8] of 12 min.

For the compound `C[C@@H](O)[C@H]1C(=O)N2C(C(=O)O)=C(SCCNC=N)C[C@H]12` [IMIPENEM ANHYDROUS], the MIC in data set [1] (Escherichia coli) amounted to 0.5 µg/mL (≈ 1.67 µM); in data set [2] (Staphylococcus aureus), 0.12 µg/mL (≈ 0.401 µM); in data set [3] (setting [9]), 30 µg/mL (≈ 100 µM); in data set [7] (Bacteroides fragilis), 0.12 µg/mL (≈ 0.401 µM); in data set [4] (Escherichia coli) it was 0.5 µg/mL (≈ 1.67 µM); in data set [6] (Staphylococcus aureus), 0.06 µg/mL (≈ 0.2 µM).

For `CS[C@H]1CCS[C@H]2C1=C(C(=O)[O-])N1C(=O)[C@H]([C@@H](C)O)[C@@H]21.[Na+]`, the minimal inhibitory concentration (MIC) in data set [1] (Escherichia coli) is 2 µg/mL; in data set [2] (Staphylococcus aureus) it was 0.5 µg/mL; in data set [3] (setting [9]), ≤ 10 µg/mL; in data set [7] (Bacteroides fragilis) it was 0.2 µg/mL; in data set [4] (Escherichia coli) it was 1 µg/mL; in data set [6] (Staphylococcus aureus) it was 0.2 µg/mL. In data set [5], this compound came in with a half-life of 386 min.
